Data as given in ChEMBL document CHEMBL2163191, “Antiallergic activity profile in vitro RBL-2H3 and in vivo passive cutaneous anaphylaxis mouse model of new sila-substituted 1,3,4-oxadiazoles” (J Med Chem, 2012).
Active and inactive are the calls of the source. The calls are words filed in the database; no cut-off is given here.

What was measured:
[1] = tested on: RBL-2H3; assay: Antidegranulation effect in DNP-HSA induced rat RBL2H3 cells assessed as IgE/Ag complex-induced degranulation preincubated for 30 mins before DNP-HSA challenge for 15 mins by beta-hexosaminidase release based microplate reader method; format: functional, cell-based
[2] = tested on: Mus musculus; assay: Antiallergic activity in IgE/Ag-induced passive cutaneous anaphylactic ICR mouse model injected with DNP-HSA-Evans blue dye post DNP-IgE challenge at 50 mg/kg, po 1 hr before antigenic challenge measured after 2 hrs post IgE/Ag challenge; format: functional, organism-based; parameters: dose 50 mg/kg
[3] = tested on: RBL-2H3; assay: Cytotoxicity against IgE/Ag-stimulated rat RBL2H3 cells at 50 to 200 uM incubated for 23 hrs by Ez-cytox assay; format: cell-based; details: rbl-2h3, 23 h
[4] = tested on: RBL-2H3; assay: Inhibition of PI3K-mediated Akt phosphorylation in IgE/Ag-induced rat RBL2H3 cells incubated in presence of DNP-HSA for 1 hr post compound dosing by Western blotting; format: cell-based
[5] = tested on: RBL-2H3; assay: Inhibition of TNFalpha mRNA expression in IgE/Ag-stimulated rat RBL2H3 cells incubated in presence of DNP-HSA for 1 hr post compound dosing by RT-PCR; format: functional, cell-based
[6] = tested on: Mus musculus; assay: Antiallergic activity in IgE/Ag-induced passive cutaneous anaphylactic ICR mouse model injected with DNP-HSA-Evans blue dye post DNP-IgE challenge at 50 to 100 mg/kg, po 1 hr before antigenic challenge measured after 2 hrs post IgE/Ag challenge; format: functional, organism-based

Structure (SMILES): CC(C)(C)CS(=O)(=O)Cc1nnc(-c2ccc(Cl)cc2)o1
- Activity [1]: inactive

Structure (SMILES): CN(C)CCOC(c1ccccc1)c1ccccc1
- Activity [2]: Active

Structure (SMILES): C[Si](C)(C)CS(=O)(=O)Cc1nnc(-c2ccc(Cl)cc2)o1
- Activity [3]: Non-toxic
- inhibition [4]: Dose-dependent effect
- Activity [1]: Dose-dependent effect
- inhibition [5]: Dose-dependent effect
- Activity [6]: Active
